We go through one molecule from patent US20040127518A1, “Modulation of anxiety through blockade of anandamide hydrolysis” (priority 2002, published 2004).

Data set [1] is described as follows: Body temperature (rectal probe). The note with it: UCM532 10 mg kg-1 i.p.; UCM597 0.3 mg kg-1 i.p. Format: in vivo. From the text:
(§1) We dissolved all compounds in saline/Tween 80/polyethylenglycol (90/5/5) and administered them by i.p. injection immediately before tests. We measured body temperature with a rectal probe (Type T, Copper-Costantan Thermocouple-Physitemp Instruments INC, Clifton, N.J.) connected to a digital thermometer (model BAT-12 Physitemp Instruments INC, Clifton, N.J.); and catalepsy using the procedure described in Tseng and Craft (Tseng, A. H. et al., Eur. J. Pharmacol., 430, 41-47 (2001)).

A short description of another data set: Catalepsy. The data set is classed as in vivo. As to conditions: UCM532 10 mg kg-1 i.p.; UCM597 0.3 mg kg-1 i.p.; data not shown.
From the text: as §1

Another data set concerns the target T1, FAAH (Rattus norvegicus, UniProt P97612).
T1 sequence (P97612 1-579): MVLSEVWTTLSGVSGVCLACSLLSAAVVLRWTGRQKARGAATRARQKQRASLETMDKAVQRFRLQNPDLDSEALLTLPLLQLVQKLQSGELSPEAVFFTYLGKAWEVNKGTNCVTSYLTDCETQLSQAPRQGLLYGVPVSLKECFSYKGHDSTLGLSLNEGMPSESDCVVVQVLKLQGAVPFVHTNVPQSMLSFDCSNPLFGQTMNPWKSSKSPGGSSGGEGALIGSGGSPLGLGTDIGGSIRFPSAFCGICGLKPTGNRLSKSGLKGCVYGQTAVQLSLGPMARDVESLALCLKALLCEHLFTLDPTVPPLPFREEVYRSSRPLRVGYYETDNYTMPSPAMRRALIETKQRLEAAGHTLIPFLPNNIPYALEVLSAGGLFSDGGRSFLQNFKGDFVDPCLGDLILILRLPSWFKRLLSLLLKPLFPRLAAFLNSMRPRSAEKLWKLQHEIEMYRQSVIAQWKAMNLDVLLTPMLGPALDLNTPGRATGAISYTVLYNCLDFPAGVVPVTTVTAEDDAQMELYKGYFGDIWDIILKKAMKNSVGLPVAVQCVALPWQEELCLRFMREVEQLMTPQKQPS
The data set is described as follows: FAAH-catalyzed hydrolysis of [3H]anandamide by intact cortical neurons in primary cultures. Format: cell-based. The note with it: n=8, read-out: IC50, hydrolysis of exogenous [3H]anandamide.

The target in another data set is CB2 receptor (Homo sapiens, UniProt P34972). The data set is described as follows: CB2 binding assay in CB2-overexpressing Chinese hamster ovary cells, [3H]WIN-55212-2.
CB2 receptor, sequence (P34972 whole entry): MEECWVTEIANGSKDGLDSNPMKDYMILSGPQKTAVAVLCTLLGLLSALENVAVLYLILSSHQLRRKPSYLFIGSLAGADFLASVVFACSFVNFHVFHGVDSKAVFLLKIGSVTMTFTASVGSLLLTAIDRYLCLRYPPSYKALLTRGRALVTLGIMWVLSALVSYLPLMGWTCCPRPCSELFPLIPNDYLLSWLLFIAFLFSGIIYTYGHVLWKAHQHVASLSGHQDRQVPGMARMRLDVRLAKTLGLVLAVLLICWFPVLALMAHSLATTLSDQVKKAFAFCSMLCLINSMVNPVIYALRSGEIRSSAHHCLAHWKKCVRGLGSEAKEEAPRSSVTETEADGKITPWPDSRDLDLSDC
In data set [2] the target is electric eel acetylcholinesterase (Electrophorus electricus, UniProt O42275).
electric eel acetylcholinesterase, sequence (O42275 whole entry): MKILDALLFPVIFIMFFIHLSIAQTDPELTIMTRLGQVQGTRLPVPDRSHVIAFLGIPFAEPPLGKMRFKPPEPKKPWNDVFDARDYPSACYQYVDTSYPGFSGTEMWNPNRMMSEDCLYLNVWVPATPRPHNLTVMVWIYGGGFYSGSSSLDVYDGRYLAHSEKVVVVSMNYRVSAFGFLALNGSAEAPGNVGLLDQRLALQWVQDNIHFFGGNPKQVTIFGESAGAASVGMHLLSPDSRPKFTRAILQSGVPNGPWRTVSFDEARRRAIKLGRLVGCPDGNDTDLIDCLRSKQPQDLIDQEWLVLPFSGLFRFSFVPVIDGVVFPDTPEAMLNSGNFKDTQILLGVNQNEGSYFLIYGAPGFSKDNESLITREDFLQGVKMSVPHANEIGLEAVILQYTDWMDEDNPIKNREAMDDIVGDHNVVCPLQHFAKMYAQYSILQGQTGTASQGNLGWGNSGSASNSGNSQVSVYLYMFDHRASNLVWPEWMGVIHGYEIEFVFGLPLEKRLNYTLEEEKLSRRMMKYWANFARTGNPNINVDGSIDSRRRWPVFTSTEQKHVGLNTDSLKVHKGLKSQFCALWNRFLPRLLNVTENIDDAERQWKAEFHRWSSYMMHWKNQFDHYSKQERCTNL
From the text: (§2) We prepared cell fractions from rat brain homogenates, and assayed membrane FAAH activity and cytosol MGL activity using anandamide [ethanolamine-3H] (American Radiolabeled Chemicals, ARC (St. Louis Mo.), 60 Ci/mmol) and 2-mono-oleoyl-glycerol-[glycerol-1,2,3^−3H] (ARC, St. Louis Mo., 20 Ci/mmol), respectively, as substrates (Dinh, T. Proc. Natl. Acad. Sci. U.S.A. (2002)). We conducted [^3H]anandamide transport assays in human astrocytoma cells (Piomelli, D. et al., Proc. Natl. Acad. Sci. U.S.A., 96, 5802-5807 (1999)); CB1 and CB2 binding assays in rat cerebellar membranes and CB2-overexpressing Chinese hamster ovary cells (Receptor Biology-Perkin Elmer, Wellesley, Mass.), respectively, using [^3H]WIN-55212-2 (NEN-Dupont, Boston, Mass., 40-60 Ci/mmol) as a ligand (Devane, W. A. et al. Science, 258, 1946-1949 (1992)); cholinesterase assays with a commercial kit (Sigma, St. Louis, Mo.), using purified enzymes (electric eel acetylcholinesterase type V-S and horse serum cholinesterase; both from Sigma, St. Louis, Mo.) and following manufacturer's instructions.
The test system of a further data set is anandamide transport. The data set is described as follows: [3H]anandamide transport assay in human astrocytoma cells.
Data set [3] can be described thus: Food intake in free-feeding rats. Format: in vivo, rat. As to conditions: UCM532 10 mg kg-1 i.p.; UCM597 0.3 mg kg-1 i.p.; data not shown. How it is done:
We recorded food intake in free-feeding rats by using an automated system (Scipro Inc., New York). Rats were acclimated to the test cages for three days prior to the tests. Each test began at the onset of the dark phase and lasted for 24 hours.

Another data set in a line: Mouse hot-plate test. Format: in vivo. The note with it: dose not stated, data not shown. How it is done:
We dissolved FAAH inhibitors in polyethyleneglycol/water (1/1) and rimonabant in saline. Formalin and hot-plate assays were carried out in the mouse, as described (Beltramo, M. et al., FEBS Lett., 403, 263-267 (1997)).
The compounds exerted, however, moderate antinociceptive effects in two models of acute pain.

A short description of data set [4]: Motor activity (Opto-Varimex cage). The data set is classed as in vivo, rat. As for the experimental part:
We dissolved FAAH inhibitors and rimonabant in dimethylsulfoxide (DMSO)/saline (7/3 and 9/1, respectively); we administered FAAH inhibitors by i.p. injection 30 min before tests and rimonabant 30 min before UCM532. The elevated zero maze was comprised of a black Perspex annular platform (105 cm diameter, 10 cm width) elevated to 65 cm above ground level, divided equally into four quadrants (Bickerdike, M. J. et al., Eur. J. Pharmacol., 271, 403-411 (1994); Shepherd, J. K. et al., Psychopharmacology, 116, 56-64 (1994)). […] We placed the rats in a closed quadrant and video recorded them for 5-min periods, thoroughly cleaning the maze between sessions. […] Results are expressed as percent time in open quadrant/total time (percent time open). Results were analyzed by one-way ANOVA followed by Tukey's test. We recorded motor activity of each rat in an Opto-Varimex cage (Columbus Instruments, Columbus, Ohio) linked on-line to a computer and placed in a sound-attenuated room illuminated by a 20-W white light. The amount of time spent in ambulatory activity was analyzed using an Auto-Track software (Columbus Instruments, Columbus, Ohio) as described elsewhere (Ali, M. M. et al., Neurosci. Lett., 284, 57-60 (2000); Wedzony, K. et al., Neuropsychopharmacology, 23, 547-559 (2000)). […] We analyzed data by overall one-way ANOVA followed by Tukey's test for individual between-group comparisons. […]

Data set [5] is described as follows: Isolation-induced ultrasonic vocalization emission in rat pups. The data set is classed as in vivo. As to conditions: 5 mg kg-1.

Some results are limits rather than exact numbers.

From the text for CB2 receptor: as §2
From the text for anandamide transport: as §2

Usually IC50 stands for the concentration that inhibits the measured activity by half. As for `CCCCNC(=O)Oc1ccc(OCc2ccccc2)cc1` [UCM532, n-Butylcarbamic acid 4-benzyloxyphenyl ester], the “body temperature / hypothermia, compound alone” value in data set [1] is on record as “no”. In addition, in the data set “Catalepsy”, the “catalepsy (rigid immobility)” value is “no catalepsy”. On FAAH, the IC50 turned out to be 214 ± 79 nM. The “effect on binding of a high-affinity ligand to CB2 (in words)” value on CB2 receptor was “no effect”. Further, at CB2 receptor (Table 2), the “CB2: maximal concentration of FAAH inhibitor tested” value is over 300 µM and the “CB2 SI (maximal concentration tested/IC50 for FAAH)” value is “≧1000”. Also, the “effect on acetylcholinesterase activity (in words)” value in data set [2] is on record as “did not affect”. Moreover, the “AChE: maximal concentration of FAAH inhibitor tested” value in [2] (Table 2) is over 100 µM. In addition, the “AT: maximal concentration of FAAH inhibitor tested” value with anandamide transport (Table 2) is over 300 µM. Further, the “effect on anandamide transport (in words)” value with anandamide transport (human astrocytoma cells) was “no effect”. The “hyperphagia (increased food intake)” value in [3] is on record as “no”. Besides, the “antinociceptive effect, hot-plate test, compared with UCM597” value in “Mouse hot-plate test” was “mimicked, albeit less effectively”. The ambulation time entry in data set [4] (adult rats, 20 min session, ≧10 mg kg-1) was “modest decrease”. Further, in data set [4] (rat pups, 5 mg kg-1, data not shown), the pup movement entry is “no effect”. Further, the isolation-induced ultrasonic calls in [5] was “strongly reduced”.
